In patent US10375962B2, “Heterocycle derivatives as pesticides” (BAYER CROPSCIENCE AKTIENGESELLSCHAFT, priority 2016, dated 2019):

Experiments:
[1] = log P by HPLC on a reversed-phase column (C 18), EEC Directive 79/831 Annex V.A8; format: physicochemical
Excerpt: Called log P (HCOOH) in the table.
Called log P (neutral) in the table.

[2] = test system: green peach aphid (Myzus persicae); assay: Myzus persicae - spray test (Chinese cabbage leaf discs); format: in vivo; details: after 5 days
Method: Solvent: 78 parts by weight of acetone • • 1.5 parts by weight of dimethylformamide Emulsifier: alkylaryl polyglycol ether
(§1) To produce a suitable active compound formulation, 1 part by weight of active compound is dissolved with the stated parts by weight of solvent and made up with water containing an emulsifier concentration of 1000 ppm until the desired concentration is attained. To produce further test concentrations, the formulation is diluted with emulsifier-containing water.
Discs of Chinese cabbage leaves (Brassica pekinensis) infested by all stages of the green peach aphid (Myzus persicae) are sprayed with an active compound formulation of the desired concentration.
After 5 days, the efficacy in % is determined. 100% means that all the aphids have been killed and 0% means that none of the aphids have been killed.

[3] = test system: caterpillars of the armyworm (Spodoptera frugiperda); assay: Spodoptera frugiperda - spray test; format: in vivo; details: maize leaf discs, after 7 days
Method: Solvent: 78.0 parts by weight of acetone • • 1.5 parts by weight of dimethylformamide Emulsifier: alkylaryl polyglycol ether […] To produce further test concentrations, the formulation is diluted with emulsifier-containing water. Leaf discs of maize (Zea mays) are sprayed with an active compound preparation of the desired concentration and, after drying, populated with caterpillars of the armyworm (Spodoptera frugiperda).

[4] = test system: larvae of the mustard beetle (Phaedon cochleariae); assay: Phaedon cochleariae - spray test; format: in vivo; details: after 7 days
Method: Solvent: 78.0 parts by weight of acetone • • 1.5 parts by weight of dimethylformamide
Emulsifier: alkylaryl polyglycol ether
as §1
Discs of Chinese cabbage leaves (Brassica pekinensis) are sprayed with an active compound formulation of the desired concentration and, after drying, populated with larvae of the mustard beetle (Phaedon cochleariae).
After 7 days, the efficacy in % is determined. 100% means that all the beetle larvae have been killed and 0% means that none of the beetle larvae have been killed.

[5] = acidic range, pH 2.7, 0.1% aqueous formic acid/acetonitrile, 55° C.
[6] = neutral range, pH 7.8, 0.001 molar aqueous ammonium hydrogencarbonate/acetonitrile, 55° C.

SMILES | LOGP_HCOOH (log P (HCOOH)) ([1]; pH 2.7) | LOGP_NEUTRAL (log P (neutral)) ([1]; pH 7.8) | LOGP_HCOOH (log P (HCOOH)) [1, 5] | LOGP_NEUTRAL (log P (neutral)) [1, 6] | efficacy ([4]; application rate 100 g/ha) [%] | other results
CCS(=O)(=O)c1ccc(-n2ccc3cc(Cl)ccc32)nc1-c1nc2cc(C(F)(F)F)ncc2n1C [Example I-25] |  |  | 4.10 | 4.09 |  | 
CCS(=O)(=O)c1ccc(-n2ccc3ccccc32)nc1-c1nc2cc(C(F)(F)F)ncc2n1C [Example I-26] |  |  | 3.72 | 3.65 |  | 
CCS(=O)(=O)c1ccc(-n2ncc3cc(Cl)ccc32)nc1-c1nc2cc(C(F)(F)F)ncc2n1C [Example I-9] | 4.03 | 4.03 |  |  |  | 
CCS(=O)(=O)c1ccc(-n2nnc3cc(Cl)ccc32)nc1-c1nc2cc(C(F)(F)F)ncc2n1C [Example I-50] |  |  | 3.72 | 3.77 | 100 | efficacy ([3]; application rate 100 g/ha): 100%
CCS(=O)(=O)c1ccc(-n2ncc3ccncc32)nc1-c1nc2cc(C(F)(F)F)ncc2n1C [Example I-7] |  |  |  |  | 100 | efficacy ([4]; application rate 500 g/ha): 100%
CCS(=O)(=O)c1ccc(-n2ccc3ncccc32)nc1-c1nc2cc(C(F)(F)F)ncc2n1C [Example I-20] |  |  | 1.75 | 2.47 |  | 
CCS(=O)(=O)c1ccc(-n2c(=O)oc3ccccc32)nc1-c1nc2cc(C(F)(F)F)ncc2n1C [Example I-41] |  |  | 3.25 | 3.26 |  | 

The next lines start with results.

LOGP_HCOOH (log P (HCOOH)) ([1]; pH 2.7) | LOGP_NEUTRAL (log P (neutral)) ([1]; pH 7.8) | SMILES | LOGP_HCOOH (log P (HCOOH)) [1, 5] | LOGP_NEUTRAL (log P (neutral)) [1, 6] | efficacy ([4]; application rate 100 g/ha) [%] | other results
2.59 | 2.62 | CCS(=O)(=O)c1ccc(-n2c(=O)[nH]c3ccccc32)nc1-c1nc2cc(C(F)(F)F)ncc2n1C [Example I-45] |  |  |  | 
2.71 | 2.65 | CCS(=O)(=O)c1ccc(-c2ccc3cn(C)nc3c2)nc1-c1nc2cc(C(F)(F)F)ncc2n1C [Example I-14] |  |  |  | efficacy ([2]; application rate 500 g/ha): 70%; efficacy ([3]; application rate 100 g/ha): 100%; efficacy ([3]; application rate 500 g/ha): 100%
2.51 | 2.69 | CCS(=O)(=O)c1ccc(-n2ccc3nccc(Cl)c32)nc1-c1nc2cc(C(F)(F)F)ncc2n1C [Example I-19] |  |  | 100 | efficacy ([2]; application rate 100 g/ha): 90%; efficacy ([2]; application rate 500 g/ha): 70%; efficacy ([4]; application rate 500 g/ha): 100%
3.10 | 3.06 | CCS(=O)(=O)c1ccc(-n2c(=O)n(C)c3ccccc32)nc1-c1nc2cc(C(F)(F)F)ncc2n1C [Example I-44] |  |  |  | 
2.42 | 2.38 | CCS(=O)(=O)c1ccc(-n2nc3ccc(Cl)nn3c2=O)nc1-c1nc2cc(C(F)(F)F)ncc2n1C [Example I-42] |  |  | 100 | 
2.69 | 2.67 | CCS(=O)(=O)c1ccc(-n2cnc3ccc(OC)cc32)nc1-c1nc2cc(C(F)(F)F)ncc2n1C [Example I-30] |  |  |  | 
3.29 | 3.32 | CCS(=O)(=O)c1ccc(N2Cc3cc(OC)ccc3C2=O)nc1-c1nc2cc(C(F)(F)F)ncc2n1C [Example I-38] |  |  |  | efficacy ([3]; application rate 100 g/ha): 100%
3.05 |  | CCS(=O)(=O)c1ccc(-n2c(=O)[nH]c3cc(Cl)ccc32)nc1-c1nc2cc(C(F)(F)F)ncc2n1C [Example I-47] |  |  |  | 
2.92 | 2.96 | CCS(=O)(=O)c1ccc(N2C(=O)c3ccccc3C2=O)nc1-c1nc2cc(C(F)(F)F)ncc2n1C [Example I-40] |  |  | 100 | efficacy ([4]; application rate 500 g/ha): 100%
